The record followed here is patent US12516038B2, “Inhibitors of antigen presentation by HLA-DR” (Janssen Pharmaceutica NV, priority 2020, dated 2026).

Assay [1] concerns HLA-DR4 restricted mouse T cell hybridoma line (DR4.CII.36.8) with HLA-DRB1*04:01-expressing Boleth cells. Kind of assay: HLA-DR4-restricted peptide-specific T cell-based assay (hybridoma assay). The conditions noted are these: Mus musculus, T-cell, 6 h, inhibition of IL-2 production, CII259-273 peptide presented by Boleth cells. An outline of the steps: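 IC50 values derive from 4-parameter logistic fits of IL-2 AlphaLISA signal over 8-point duplicate titrations. Compound and HLA-DRB1*04:01 Boleth APCs were preincubated 1 h, 37° C., before adding CII259-273-restricted DR4.CII.36.8 hybridoma cells with peptide for 6 h at 37° C., in DMEM/1% FCS.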

In the next assay the target is HLA-DRB1*0401 (Homo sapiens (Human), UniProt P01903+P01911, A100K/A169T/DEL228-266/F76Y/I96L/K127E/L162R/M171V/N62H/P40V/Q125Y/R42H/S133A/S149N/S66Y/V115G/V209L/W38E). Kind of assay: HLA-DR4 HTRF assay. It is filed as binding. Particulars: inhibition of loading of Alexa Fluor 647-labeled Cit-CII peptide onto HLA-DR4 (CLIP cleaved). Put shortly: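 HLA-DRB1*04:01 construct (α/β fused to human Fc, CLIP pre-cleaved by HRV3C overnight at 4° C) at 3 nM was preincubated 45 min with compound and 1 nM anti-Fc-Tb donor, then 40 nM Alexa647-Cit-CII1236-1249 peptide added. After 90 min at 37° C, the 665/620 nm HTRF ratio gave % inhibition; IC50 by nonlinear regression.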

As usually defined, the IC50 is the concentration that inhibits the measured activity by half. Low values mean greater potency, high ones weaker potency. In the case of `Cc1c(O[C@@H](c2ccccc2)c2ccc(C(N)=O)cc2)ccc2c1OCCC2=O` (single isomer, unassigned) [Example 69b, (*S)-4-(((8-Methyl-4-oxochroman-7-yl)oxy)(phenyl)methyl)benzamide], the IC50 in assay [1] was > 15 µM; at HLA-DRB1*0401 it was 2.1 µM.

`Cc1c(O[C@@H](c2ccncc2)c2cccc(CNC(N)=O)c2)ccc2c1OCCC2=O` (single isomer, unassigned) [Example 81a, (*R)-1-(3-(((8-methyl-4-oxochroman-7-yl)oxy)(pyridin-4-yl)methyl)benzyl)urea]: the IC50 was 15 µM in assay [1] and 0.69 µM against HLA-DRB1*0401.

With `COc1cc(C(N)=O)ccc1[C@H](Oc1ccc2c(c1C)OCCC2=O)c1ccncc1` (single isomer, unassigned) [Example 82a, (*R)-3-Methoxy-4-(((8-methyl-4-oxochroman-7-yl)oxy)(pyridin-4-yl)methyl)benzamide], the half-inhibitory concentration (IC50) was > 15 µM in assay [1] and 0.71 µM at HLA-DRB1*0401.

As to `COc1cc(C(N)=O)ccc1[C@@H](Oc1ccc2c(c1C)OCCC2=O)c1ccncc1` (single isomer, unassigned) [Example 82b, (*S)-3-Methoxy-4-(((8-methyl-4-oxochroman-7-yl)oxy)(pyridin-4-yl)methyl)benzamide], the half-inhibitory concentration (IC50) in assay [1] is 5.7 µM; at HLA-DRB1*0401, 0.62 µM.

As for `CCOc1cc(C(N)=O)ccc1[C@@H](Oc1ccc2c(c1C)OCCC2=O)c1ccncc1` (single isomer, unassigned) [Example 83b, (*S)-3-ethoxy-4-(((8-methyl-4-oxochroman-7-yl)oxy)(pyridin-4-yl)methyl)benzamide], the results for the half-inhibitory concentration (IC50) (in assay [1]; against HLA-DRB1*0401) were 5 µM and 0.69 µM, respectively.

With `Cc1c(O[C@@H](c2ccc(C(N)=O)cc2)c2ccnc(CCC(=O)O)c2)ccc2c1OCCC2=O` (single isomer, unassigned) [Example 87b], the 50% inhibitory concentration (IC50) in assay [1] was > 15 µM; at HLA-DRB1*0401, 0.51 µM.

Regarding `Cc1cc2c(c(C)c1O[C@@H](c1ccc(F)cc1)c1ccc(C(N)=O)cc1)OCCC2=O` (single isomer, unassigned) [Example 90a, (*R)-4-(((6,8-dimethyl-4-oxochroman-7-yl)oxy)(4-fluorophenyl)methyl)benzamide], the half-inhibitory concentration (IC50) in assay [1] was > 15 µM; on HLA-DRB1*0401 it was 0.52 µM.

As to `Cc1cc2c(c(C)c1O[C@H](c1ccc(F)cc1)c1ccc(C(N)=O)cc1)OCCC2=O` (single isomer, unassigned) [Example 90b, (*S)-4-(((6,8-dimethyl-4-oxochroman-7-yl)oxy)(4-fluorophenyl)methyl)benzamide], the half-maximal inhibitory concentration (IC50) in assay [1] came to 7.4 µM; against HLA-DRB1*0401 it was 0.59 µM.

Take `Cc1c(O[C@H](c2ccc(C(N)=O)cc2)c2ccc(F)c(F)c2)c(F)cc2c1OCCC2=O` (single isomer, unassigned) [Example 91a, (*R)-4-((3,4-difluorophenyl)((6-fluoro-8-methyl-4-oxochroman-7-yl)oxy)methyl)benzamide]: the IC50 stood at 7.8 µM in assay [1] and 0.55 µM against HLA-DRB1*0401.

`Cc1c(O[C@@H](c2ccc(C(N)=O)cc2)c2ccc(F)c(F)c2)c(F)cc2c1OCCC2=O` (single isomer, unassigned) [Example 91b, (*S)-4-((3,4-difluorophenyl)((6-fluoro-8-methyl-4-oxochroman-7-yl)oxy)methyl)benzamide]: the half-inhibitory concentration (IC50) in assay [1] was > 15 µM; on HLA-DRB1*0401, 0.35 µM.

In the case of `Cc1c(O[C@@H](c2ccc(C(N)=O)cc2)c2cccc(C#N)c2)c(F)cc2c1OCCC2=O` (single isomer, unassigned) [Example 92b, (*S)-4-((3-cyanophenyl)((6-fluoro-8-methyl-4-oxochroman-7-yl)oxy)methyl)benzamide], the half-maximal inhibitory concentration (IC50) is > 15 µM in assay [1] and 0.19 µM against HLA-DRB1*0401.

Consider `Cc1c(O[C@H](c2ccc(C(N)=O)cc2)c2ccc(S(C)(=O)=O)cc2)c(F)cc2c1OCCC2=O` (single isomer, unassigned) [Example 93a, (*R)-4-(((6-fluoro-8-methyl-4-oxochroman-7-yl)oxy)(4-(methylsulfonyl)phenyl)methyl)benzamide], for which the IC50 was 6 µM in assay [1] and 0.19 µM against HLA-DRB1*0401.

Consider `Cc1c(O[C@@H](c2ccc(C(N)=O)cc2)c2ccc(S(C)(=O)=O)cc2)c(F)cc2c1OCCC2=O` (single isomer, unassigned) [Example 93b, (*S)-4-(((6-fluoro-8-methyl-4-oxochroman-7-yl)oxy)(4-(methylsulfonyl)phenyl)methyl)benzamide], for which the half-maximal inhibitory concentration (IC50) amounted to 14 µM in assay [1] and 0.28 µM on HLA-DRB1*0401.

As for `Cc1c(O[C@H](c2ccncc2)c2ccc(C(N)=O)c(F)c2)c(F)cc2c1OCCC2=O` (single isomer, unassigned) [Example 95a, (*R)-2-fluoro-4-(((6-fluoro-8-methyl-4-oxochroman-7-yl)oxy)(pyridin-4-yl)methyl)benzamide], the results for the IC50 (in assay [1]; at HLA-DRB1*0401) were 0.23 µM and 0.22 µM, respectively.

Turning to `Cc1c(O[C@@H](c2ccncc2)c2ccc(C(N)=O)c(F)c2)c(F)cc2c1OCCC2=O` (single isomer, unassigned) [Example 95b, (*S)-2-fluoro-4-(((6-fluoro-8-methyl-4-oxochroman-7-yl)oxy)(pyridin-4-yl)methyl)benzamide], the IC50 in assay [1] amounted to 1.1 µM; on HLA-DRB1*0401, 0.22 µM.

`Cc1c(O[C@H](c2ccncc2)c2cccc(F)c2)c(F)cc2c1OCCC2=O` (single isomer, unassigned) [Example 96a, (*R)-6-fluoro-7-((3-fluorophenyl)(pyridin-4-yl)methoxy)-8-methylchroman-4-one]: the figures for the IC50 (in assay [1]; against HLA-DRB1*0401) were 11 µM and 0.3 µM, respectively.

On to `Cc1c(O[C@@H](c2ccncc2)c2cccc(F)c2)c(F)cc2c1OCCC2=O` (single isomer, unassigned) [Example 96b, (*S)-6-fluoro-7-((3-fluorophenyl)(pyridin-4-yl)methoxy)-8-methylchroman-4-one], for which the IC50 in assay [1] is > 15 µM; against HLA-DRB1*0401, 0.47 µM.

In the case of `COc1ccc([C@H](Oc2c(F)cc3c(c2C)OCCC3=O)c2ccncc2)cc1F` (single isomer, unassigned) [Example 97a, (*R)-6-fluoro-7-((3-fluoro-4-methoxyphenyl)(pyridin-4-yl)methoxy)-8-methylchroman-4-one], the IC50 stood at 5.2 µM in assay [1] and 0.41 µM at HLA-DRB1*0401.

Take `COc1ccc([C@@H](Oc2c(F)cc3c(c2C)OCCC3=O)c2ccncc2)cc1F` (single isomer, unassigned) [Example 97b, (*S)-6-fluoro-7-((3-fluoro-4-methoxyphenyl)(pyridin-4-yl)methoxy)-8-methylchroman-4-one]: the figures for the IC50 (in assay [1]; against HLA-DRB1*0401) were > 15 µM and 0.38 µM, respectively.

For the compound `NC(=O)c1ccc([C@H](Oc2ccc3c(c2)OCCC3=O)c2ccncc2)c2ccccc12` (single isomer, unassigned) [Example 98a, (*R)-4-(((4-oxochroman-7-yl)oxy)(pyridin-4-yl)methyl)-1-naphthamide], the results for the 50% inhibitory concentration (IC50) (in assay [1]; against HLA-DRB1*0401) were 5.9 µM and 9 µM, respectively.

As for `NC(=O)c1ccc([C@@H](Oc2ccc3c(c2)OCCC3=O)c2ccncc2)c2ccccc12` (single isomer, unassigned) [Example 98b, (*S)-4-(((4-oxochroman-7-yl)oxy)(pyridin-4-yl)methyl)-1-naphthamide], the IC50 in assay [1] was > 15 µM; on HLA-DRB1*0401, 10 µM.

With `CCc1cc(O[C@H](c2ccncc2)c2ccc(C(N)=O)cc2)cc2c1C(=O)CCO2` (single isomer, unassigned) [Example 99b, (*S)-4-(((5-ethyl-4-oxochroman-7-yl)oxy)(pyridin-4-yl)methyl)benzamide], the half-maximal inhibitory concentration (IC50) in assay [1] was 5.5 µM; on HLA-DRB1*0401, > 89 µM.

Take `COc1c(O[C@@H](c2ccncc2)c2ccc(C(N)=O)cc2)ccc2c1OCCC2=O` (single isomer, unassigned) [Example 100a, (*R)-4-(((8-methoxy-4-oxochroman-7-yl)oxy)(pyridin-4-yl)methyl)benzamide]: the IC50 in assay [1] turned out to be 7.6 µM; on HLA-DRB1*0401, 6.4 µM.

As for `COc1c(O[C@H](c2ccncc2)c2ccc(C(N)=O)cc2)ccc2c1OCCC2=O` (single isomer, unassigned) [Example 100b, (*S)-4-(((8-methoxy-4-oxochroman-7-yl)oxy)(pyridin-4-yl)methyl)benzamide], the figures for the IC50 (in assay [1]; against HLA-DRB1*0401) were 2.3 µM and 9 µM, respectively.

Take `N#Cc1cc(O[C@@H](c2ccncc2)c2ccc(C(N)=O)cc2)cc2c1C(=O)CCO2` (single isomer, unassigned) [Example 101a, (*R)-4-(((5-cyano-4-oxochroman-7-yl)oxy)(pyridin-4-yl)methyl)benzamide]: the figures for the concentration for half-maximal inhibition (IC50) (in assay [1]; against HLA-DRB1*0401) were > 15 µM and 0.96 µM, respectively.

As for `N#Cc1cc(O[C@H](c2ccncc2)c2ccc(C(N)=O)cc2)cc2c1C(=O)CCO2` (single isomer, unassigned) [Example 101b, (*S)-4-(((5-cyano-4-oxochroman-7-yl)oxy)(pyridin-4-yl)methyl)benzamide], the IC50 in assay [1] was 12 µM; at HLA-DRB1*0401, 1.3 µM.

For `COc1ccc([C@@H](Oc2c(F)cc3c(c2C)OCCC3=O)c2ccncc2)cc1` (single isomer, unassigned) [Example 103a, (*R)-6-fluoro-7-((4-methoxyphenyl)(pyridin-4-yl)methoxy)-8-methylchroman-4-one], the concentration for half-maximal inhibition (IC50) in assay [1] was 15 µM; against HLA-DRB1*0401, 2.9 µM.
